Source: paper PMC7583056, “Synthesis, Characterisation and In Vitro Anticancer Activity of Catalytically Active Indole-Based Half-Sandwich Complexes” (Molecules, 2020)
Where two headings read alike, the source gives them in different places.

Columns and labels:
A2780 cells [1] = assay: Cell viability of A2780 cells, co-incubation with N-acetylcysteine (NAC); type: cell-based; settings: complex at IC50 concentration, NAC 0, 2, 5 and 10 mM
Experimental: In order to determine whether ROS formation is a plausible explanation for the activity of these compounds, A2780 cells were treated at IC50 concentrations of 1–4 in combination with increasing concentrations of N-acetylcysteine (NAC; 0, 2, 5 and 10 mM; Figure 4). NAC is a known compound that can act as an ROS scavenger in cells and can be used to counteract the effects of complexes that affect ROS levels. […] However, this effect is not observed with the Os and Ru analogues.
Cells were incubated in 96-well plates at a concentration of 7.5 × 10^3 cells per well and the plates were incubated for 24 h at 37 °C and a 5% CO2 humidified atmosphere prior to drug exposure. Complexes were dissolved in DMSO to provide stock solutions, which were further diluted with media to working concentrations. Solution of N-acetylcysteine (NAC) or sodium formate in media were also prepared. Drug-media solutions and NAC or sodium formate solutions were added to cells (final concentrations as follows: IC50 values for the complex; 0, 2, 5 and 10 mM for NAC; 0, 0.5, 1 and 2 mM for sodium formate; DMSO concentration was less than 1% (v/v) in all cases) and incubated for 24 h at 37 °C in a 5% CO2 humidified atmosphere. After 24 h of incubation, the drug-media was removed from the wells and the cells were washed with PBS (100 μL, twice), and 100 μL of complete fresh media were added to each well. The plates were further incubated for 48 h at 37 °C in a 5% CO2 humidified atmosphere to allow for a period of recovery. 3-(4,5-dimethylthiazol-2-yl)-2,5-diphenyltetrazolium bromide (MTT) (20 μL, 2.5 mg/mL) was added to each well and incubated for 2 h at 37 °C and 5% CO2 humidified atmosphere. All solutions were then removed and 100 μL of DMSO was added to each well in order to dissolve the purple formazan crystals. A Thermo Scientific Multiskan EX microplate photometer was used to measure the absorbance in each well at 570 nm. Cell survival was determined as the absorbance of treated cells divided by the absorbance of controls and expressed as a percentage.

[2] = pKa determination by UV-Vis spectroscopy at increasing pH; type: physicochemical; settings: 6% acetonitrile/water v/v; for pKa: UV-Vis, aqua adduct, pH 7–12
Experimental: The pKa values for the complexes were measured by dissolving the compounds in 6% acetonitrile/water v/v (aqua adduct formed) and by recording the UV-Vis spectra of the samples at increasing pH (pH 7–12). pKa values of the complexes were calculated using Origin 2018 by plotting the absorbance at the corresponding wavelength against the pH and fitting it to the Boltzmann equation to obtain the inflection point. For complexes 2–4, the pKa values were calculated to be around 10 (Materials and Methods section and Table 1). The pKa of compound 1 could not be calculated, as the absorbance bands for the aqua- and the hydroxo- compounds overlap; however, changes could only be observed at pH values higher than 10. These pKa values are high, although such a decrease in acidity has been previously reported (generally attributed to an increased electron density on the metal centre). As a consequence of such high pKa, only the aqua adduct of the metal complexes is expected to be present at physiological pH (7.4), thus favouring the reaction between the metal complexes with possible ligands such as nucleobases or proteins.
Complexes 1–4 were dissolved in acetonitrile/H2O 6:94 v/v and UV-Vis spectra of the sample were recorded increasing the pH (pH 7–12). pKa vales of the complexes were calculated using Origin 2018 by plotting the absorbance against the pH.

PNT2 cells = assay: Chemosensitivity assay (MTT) in PNT2 cells; type: cell-based; settings: 24 h exposure + 48 h recovery, MTT; mean ± SD
From the text: (§1) The antiproliferative activity of the ind-py ligand and of complexes 1–4 against ovarian cancer A2780 (cisplatin sensitive) and A2780cisR (cisplatin resistant) cell lines was studied. The IC50 values obtained for all the complexes are shown in Table 2, together with values for cisplatin, which was used as a positive control (untreated cells for 100% viability as negative control). […] One of the major limitations of existing anticancer drugs is their poor selectivity towards cancer cells. Comparing the response of the cancer cell lines to the normal PNT2 cells provides a preliminary indication towards the selectivity of the compounds.
(§2) In vitro chemosensitivity tests were performed against A2780, A2780cisR and PNT2 cells. Cells were routinely maintained as monolayer cultures in RPMI medium supplemented with 10% foetal calf serum, penicillin (100 I.U./mL) and streptomycin (100 μg/mL), sodium pyruvate (1 mM) and L-glutamine (2 mM). For chemosensitivity studies, cells were incubated in 96-well plates at a concentration of 7.5 × 10^3 cells per well and the plates were incubated for 24 h at 37 °C and a 5% CO2 humidified atmosphere prior to drug exposure.
(§3) Complexes were dissolved in DMSO to provide stock solutions, which were further diluted with media to provide a range of final concentrations. Drug-media solutions were added to cells (the final concentration of DMSO was less than 1% (v/v) in all cases) and incubated for 24 h at 37 °C and 5% CO2 humidified atmosphere. The drug-media was removed from the wells and the cells were washed with PBS (100 μL, twice), and 100 μL of complete fresh media were added to each well. The plates were further incubated for 48 h at 37 °C in a 5% CO2 humidified atmosphere to allow for a period of recovery. 3-(4,5-dimethylthiazol-2-yl)-2,5-diphenyltetrazolium bromide (MTT) (20 μL, 2.5 mg/mL) was added to each well and incubated for 2 h at 37 °C and 5% CO2 humidified atmosphere. All solutions were then removed and 100 μL of DMSO was added to each well in order to dissolve the purple formazan crystals. A Thermo Scientific Multiskan EX microplate photometer was used to measure the absorbance in each well at 570 nm. Cell survival was determined as the absorbance of treated cells divided by the absorbance of controls and expressed as a percentage. The IC50 values were determined from plots of % survival against drug concentration. Each experiment was repeated in triplicates of triplicates and a mean value was obtained and stated as IC50 (μM) ± SD. Cisplatin was also used as a positive control.

A2780cisR cells = assay: Chemosensitivity assay (MTT) in A2780cisR cells; type: cell-based; settings: for IC50: 24 h exposure + 48 h recovery, MTT, mean ± SD
From the text: as §1, §2, §3

[3] = Stability in d6-DMSO by 1H-NMR; type: physicochemical; settings: 1.1 mM; for Release of the ind-py ligand (decoordination rate): over 24 h; for Release of the ind-py ligand (decoordination rate) / Time to reach equilibrium with second species (DMSO-adduct): 1H-NMR; for Stability in DMSO (in words): 24 h, after equilibrium with DMSO-adduct
Experimental: Owing to the limited aqueous solubility of the complexes, all the reactivity experiments were performed using a mixture MeOD/D2O (1:1 v/v) as a solvent. The stability of complexes 1–4 in MeOD/D2O was studied via ^1H-NMR spectroscopy over a period of 24 h. […] The stability of complexes 1–4 in dimethylsulfoxide (DMSO;1.1 mM) was also studied by ^1H-NMR spectroscopy over a period of 24 h (Figure S1). […] The ligand ind-py is also stable in MeOD/D2O over 24 h (Figure S1E).
Complexes 1–4 were also dissolved in d6-DMSO (1.1 mM) and ^1H-NMR spectra were recorded at t ≤ 10 min, 12 h and 24 h.

A2780 cells [4] = assay: Chemosensitivity assay (MTT) in A2780 cells; type: cell-based; settings: for Selectivity towards cancerous cells (A2780) versus normal cells (PNT2): from IC50 values A2780 vs PNT2
From the text: as §1, §2, §3

[5] = 24 h exposure + 48 h recovery, MTT, mean ± SD, read-out: IC50 A2780
[6] = A2780 and A2780cisR, read-out: IC50 values (in the range of)

Cc1c(C)c(C)[c-](C)c1C.[Cl-].[Rh+3].c1ccc(-c2cc3ccccc3[n-]2)nc1 [complex 1, [Cp*Rh(ind-py)Cl]]
Effect on cell viability in NAC-supplemented cells (A2780 cells [1]): significant decrease of the cell viability
pH above which changes in the UV-Vis spectra could be observed ([2]; pKa itself could not be calculated): higher than 10
IC50 (PNT2 cells): 34.7 ± 6.1 µM
IC50 (A2780cisR cells): 21.5 ± 3.5 µM
Release of the ind-py ligand (decoordination rate) [3]: 25%
IC50 (A2780 cells [4]; [5]): 13 ± 1.7 µM
IC50 relative to cisplatin (fold higher / less active) (A2780 cells [4]; A2780 and A2780cisR): 3 ×
IC50 (A2780 cells [4]; [6]): ~20 µM
Selectivity towards cancerous cells (A2780) versus normal cells (PNT2) (A2780 cells [4]): 3 ×

Cc1c(C)c(C)[c-](C)c1C.[Cl-].[Ir+3].c1ccc(-c2cc3ccccc3[n-]2)nc1 [complex 2, [Cp*Ir(ind-py)Cl]]
Effect on cell viability in NAC-supplemented cells (A2780 cells [1]): significant decrease of the cell viability
pKa [2]: 9.59 ± 0.09 (λ = 300 nm)
IC50 (PNT2 cells): 32.1 ± 3.9 µM
IC50 (A2780cisR cells): 32.7 ± 1.7 µM
Release of the ind-py ligand (decoordination rate) [3]: 25%
IC50 (A2780 cells [4]; [5]): 22 ± 2.5 µM
IC50 relative to cisplatin (fold higher / less active) (A2780 cells [4]; A2780 and A2780cisR): 3 ×
IC50 (A2780 cells [4]; [6]): ~20 µM

Cc1ccc(C(C)C)cc1.[Cl-].[Ru+2].c1ccc(-c2cc3ccccc3[n-]2)nc1 [complex 3, [(p-cym)Ru(ind-py)Cl]]
Effect on cell viability in NAC-supplemented cells (A2780 cells [1]): not observed
pKa [2]: 10.63 ± 0.03 (λ = 255 nm)
IC50 (PNT2 cells): 54.3 ± 5.4 µM
IC50 (A2780cisR cells): 62.8 ± 5.3 µM
Time to reach equilibrium with second species (DMSO-adduct) [3]: less than 10 min
Stability in DMSO (in words) [3]: stable
IC50 (A2780 cells [4]; [5]): 47.3 ± 4.7 µM

Cc1ccc(C(C)C)cc1.[Cl-].[Os+2].c1ccc(-c2cc3ccccc3[n-]2)nc1 [complex 4, [(p-cym)Os(ind-py)Cl]]
Effect on cell viability in NAC-supplemented cells (A2780 cells [1]): not observed
pKa [2]: 10.15 ± 0.04 (λ = 355 nm)
IC50 (PNT2 cells): 34.2 ± 2.2 µM
IC50 (A2780cisR cells): 21.5 ± 1.3 µM
Activity against A2780cisR compared with A2780 (cross-resistance) (A2780cisR cells; comparison of IC50 values): no significant difference in activity
Time to reach equilibrium with second species (DMSO-adduct) [3]: less than 10 min
Stability in DMSO (in words) [3]: stable
IC50 (A2780 cells [4]; [5]): 18.8 ± 0.3 µM
IC50 relative to cisplatin (fold higher / less active) (A2780 cells [4]; A2780 and A2780cisR): 3 ×
IC50 (A2780 cells [4]; [6]): ~20 µM
Selectivity towards cancerous cells (A2780) versus normal cells (PNT2) (A2780 cells [4]): 2 ×
